Laboratory results reported in ChEMBL document CHEMBL1127933, “Synthesis and biological evaluation of the potent isoxazolidinyl angiotensin II receptor antagonist CL332,877 and its enantiomers” (Bioorg Med Chem Lett, 1994).

Columns and labels:
[1] = biological target: T1, Type-1 angiotensin II receptor (Bos taurus, UniProt P25104); assay: Binding affinity expressed as inhibitory concentration towards bovine adrenal cortex angiotensin II receptor was measured; format: tissue-based
T1 sequence (P25104 whole entry): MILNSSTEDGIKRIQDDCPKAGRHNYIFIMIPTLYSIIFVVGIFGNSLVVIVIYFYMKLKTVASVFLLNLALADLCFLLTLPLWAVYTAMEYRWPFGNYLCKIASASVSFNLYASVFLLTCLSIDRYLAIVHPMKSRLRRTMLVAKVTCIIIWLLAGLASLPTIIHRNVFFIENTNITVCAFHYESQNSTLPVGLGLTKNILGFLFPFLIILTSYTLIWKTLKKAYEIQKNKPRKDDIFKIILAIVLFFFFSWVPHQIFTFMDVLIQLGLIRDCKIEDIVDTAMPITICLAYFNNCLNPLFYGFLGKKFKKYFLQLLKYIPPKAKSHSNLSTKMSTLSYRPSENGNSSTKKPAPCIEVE

Angiotensin II receptor [2] = biological target: T2, Angiotensin II receptor (Rattus norvegicus, UniProt P29089+P25095+P35351); assay: Binding affinity expressed as inhibitory concentration against angiotensin II receptor of rat adrenal cortex; format: tissue-based
T2 sequence (P29089 whole entry): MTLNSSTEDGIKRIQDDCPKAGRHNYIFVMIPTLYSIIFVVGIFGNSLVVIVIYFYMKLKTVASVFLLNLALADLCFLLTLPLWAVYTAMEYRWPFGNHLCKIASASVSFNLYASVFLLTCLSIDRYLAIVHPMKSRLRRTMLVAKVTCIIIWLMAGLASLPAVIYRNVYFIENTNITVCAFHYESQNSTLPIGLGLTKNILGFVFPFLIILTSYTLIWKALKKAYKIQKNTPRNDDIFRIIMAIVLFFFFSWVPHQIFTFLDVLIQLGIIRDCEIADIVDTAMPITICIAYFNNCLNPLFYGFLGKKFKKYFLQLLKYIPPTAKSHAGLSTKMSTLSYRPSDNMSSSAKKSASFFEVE
T2 sequence (P25095 whole entry): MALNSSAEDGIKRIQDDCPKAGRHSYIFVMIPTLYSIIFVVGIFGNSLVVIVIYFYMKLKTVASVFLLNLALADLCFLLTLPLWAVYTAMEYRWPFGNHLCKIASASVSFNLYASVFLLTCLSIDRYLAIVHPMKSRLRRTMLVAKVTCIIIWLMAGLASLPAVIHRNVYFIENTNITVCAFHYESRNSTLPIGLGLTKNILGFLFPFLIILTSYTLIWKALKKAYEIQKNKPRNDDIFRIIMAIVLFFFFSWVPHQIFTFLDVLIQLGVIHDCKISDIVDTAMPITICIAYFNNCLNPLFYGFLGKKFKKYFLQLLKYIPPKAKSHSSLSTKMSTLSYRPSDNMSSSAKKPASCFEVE
T2 sequence (P35351 whole entry): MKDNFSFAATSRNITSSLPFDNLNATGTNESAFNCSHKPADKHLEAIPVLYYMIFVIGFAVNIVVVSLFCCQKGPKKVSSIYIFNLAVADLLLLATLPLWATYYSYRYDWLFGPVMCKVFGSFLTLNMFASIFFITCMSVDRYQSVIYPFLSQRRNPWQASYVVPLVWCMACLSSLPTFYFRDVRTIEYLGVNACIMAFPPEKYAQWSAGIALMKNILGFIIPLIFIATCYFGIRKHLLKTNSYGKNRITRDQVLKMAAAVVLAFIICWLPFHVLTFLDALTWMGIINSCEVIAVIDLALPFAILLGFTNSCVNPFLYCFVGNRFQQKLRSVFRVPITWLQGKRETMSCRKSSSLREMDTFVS

Rattus norvegicus [3] = assay: Change in mean arterial blood pressure in conscious renin dependent […] rats 1 mg/kg of oral dose after 5 hr; format: functional
Rattus norvegicus [4] = assay: Percent Inhibition of AII vasopressor response in SHR at 1 mg/kg oral dose in hypertensive rats after 5 h; format: functional
[5] = biological target: T1, Type-1 angiotensin II receptor; assay: Compound was tested for in vitro for AII receptor antagonistic activity in bovine adrenal cortex.; format: functional, tissue-based
Rattus norvegicus [6] = assay: Tested for […] in the […] rat at 3 mg/kg of oral dose; […]; format: functional, organism-based; design: dose 3 mg/kg
Rattus norvegicus [7] = assay: Decrease in mean arterial blood pressure in aorta coated rats 3 mg/kg of oral dose after 4 hr; format: functional
Angiotensin II receptor [8] = biological target: T2, Angiotensin II receptor; assay: Binding affinity expressed as inhibitory concentration against angiotensin II of rat adrenal cortex; format: tissue-based

## CCCCc1nc2ccc([C@]3(C)C[C@H]4CCCN4O3)cc2c(=O)n1Cc1ccc(-c2ccccc2-c2nn[n-]n2)cc1.[Na+] (stereo in doubt; 14)
[1]
  IC50: 0.038 µM
Angiotensin II receptor [2]
  IC50: 0.017 µM
Rattus norvegicus [3]; 1 mg/kg
  Change in BP: -4 mmHg
Rattus norvegicus [4]
  inhibition in vivo at 1 mg/kg: 40%

## CCCCc1nc2ccc(C(C)(O)C[C@H]3CCCN3)cc2c(=O)n1Cc1ccc(-c2ccccc2-c2nnn[nH]2)cc1 (stereo not given in full)
[5]
  IC50: 0.0035 µM

## CCCCc1nc2ccc([C@@]3(C)C[C@@H]4CCCN4O3)cc2c(=O)n1Cc1ccc(-c2ccccc2-c2nnn[n-]2)cc1.[Na+]
[1]
  IC50: 0.077 µM
Angiotensin II receptor [2]
  IC50: 0.026 µM
Rattus norvegicus [3]
  Change in BP: -3 mmHg
Rattus norvegicus [4]
  inhibition in vivo at 1 mg/kg: -10%

## CCCCc1nc2ccc(C(C)(O)C[C@H]3CCCN3)cc2c(=O)n1Cc1ccc(-c2ccccc2-c2nn[nH]n2)cc1 (stereo not given in full)
Rattus norvegicus [6]
  Activity: Weak activity
Rattus norvegicus [7]
  Change in BP: 32 mmHg

## CCc1nc2c(C)cc(C)nc2n1Cc1ccc(-c2ccccc2-c2nnn[nH]2)cc1 [L-158809]
[5]
  IC50: 0.027 µM

## CCCCc1nc2ccc([C@]3(C)C[C@H]4CCCN4O3)cc2c(=O)n1Cc1ccc(-c2ccccc2-c2nn[n-]n2)cc1.[Na+] (stereo in doubt; 1a)
[1]
  IC50: 0.026 µM
Angiotensin II receptor [8]
  IC50: 0.017 µM
Rattus norvegicus [3]; 1 mg/kg
  Change in BP: 0 mmHg
